Where no end group is shown, it is not given here. [ ]: non-standard residue; d: D form.
System: drug-resistant Mycobacterium tuberculosis
Experiment: Mycobacterium tuberculosis assay
Type: cell-based
Conditions: 10 micrograms per ml; seven days; strain resistant to PAS, streptomycin and INH; combination 0.95:1.05 mole and all ratios 1:100 to 100:1

Substance	inhibition of the growth of Mycobacterium tuberculosis [%]
Ac-Arg-Phe-Met-Trp-Met-Arg-NH2 (Ac-RFMWMR-NH2) [Peptide 2]	100
HPFHL[dL]VY-OH [Peptide 1]	100

— US20100204150A1, “USE OF A PEPTIDE AS A THERAPEUTIC AGENT” (priority 2007, published 2010)
